Like-named read-outs stand apart in the source and are kept apart here.
Key:
[1] = target: T1, human recombinant LTC4S (Homo sapiens, UniProt Q16873); assay: Determination of LTC4 synthase activity in microsomes of HEK293 cells expressing LTC4S; format: biochemical; conditions: for inhibition of LTC4S activity (in words): microsomal preparations of HEK293 cells expressing human recombinant LTC4S
T1 construct: expressed in transfected cells; host or cells: HEK293 cells stably expressing LTC4S; microsomal fraction
T1 sequence (Q16873 1-150): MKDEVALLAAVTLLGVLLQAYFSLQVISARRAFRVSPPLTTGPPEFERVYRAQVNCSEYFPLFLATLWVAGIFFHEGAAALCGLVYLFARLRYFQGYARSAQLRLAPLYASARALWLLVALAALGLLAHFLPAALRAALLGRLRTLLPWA
Description: Determination of LTC4 synthase activity. HEK293 cells stably expressing human recombinant LTC4S (HEK_LTC4S) were used to generate microsomes containing LTC4S. Briefly, HEK_LTC4S cells were frozen in liquid nitrogen and sonicated 3×20 s at 4 °C in homogenization buffer (0.1 M potassium phosphate buffer, pH 7.4, 1 mM phenylmethanesulfonylfluoride, 60 μg/mL soybean trypsin inhibitor, 1 μg/mL leupeptin, 2.5 mM glutathione, and 250 mM sucrose). Lysates were sequentially centrifuged at 10,000×g, 10 min at 4 °C and 174,000×g for 1 h at 4 °C. The microsomal fraction (2.5 μg) was resuspended in assay buffer (0.1 M potassium buffer pH 7.4, plus 5 mM glutathione) and preincubated with the test compound or vehicle (0.1 % DMSO) for 10 min at 4 °C. The reactions were started by adding 1 μM LTA4‐methyl ester (Cayman, Ann Arbor, MI) and stopped after 10 min incubation at 4 °C by 1 vol. ice‐cold methanol. Acidified PBS and LTC4‐methyl ester‐d5 as internal standard were added prior solid phase extraction, and LTC4‐methyl ester formation was analyzed by UPLC‐MS/MS as described.[43] UPLC‐MS/MS was carried out by Acquity UPLC BEH C18 column (1.7 μm, 2.1×50 mm, waters) and QTRAP 5500 Mass spectrometer (AB Sciex). LTC4‐methyl ester and LTC4‐d5 methyl ester (standard) were detected by multiple reaction monitoring in the negative ion mode by a method described previously.[44]
Reversed phase liquid chromatography and mass spectrometry. LTC4S metabolites were separated on an Acquity ultra performance liquid chromatography (UPLC) BEH C18 column (1.7 μm, 2.1×50 mm, Waters, Milford, MA) using an Acquity^TM UPLC system (Waters, Milford, MA, USA) as previously described.[42] The chromatography system was coupled to a QTRAP 5500 Mass Spectrometer (AB Sciex, Darmstadt, Germany) equipped with an electrospray ionization source. LTC4S metabolites were quantified by multiple reaction monitoring in the negative using a previously reported method with a lower limit of detection of 150 to 600 pg mL^−1 and linear quantification range up to 200 ng mL^−1.[22] Automatic peak integration was performed with ANALYST 1.6 software (Sciex, Darmstadt, Germany) using IntelliQuan default settings. Data were normalized on the internal standard PGB1 and are given as relative intensities.

[2] = system: 5‐LOX product formation in human neutrophils; assay: 5-LOX product formation in intact human neutrophils stimulated with A23187 (FLAP-dependent); conditions: Neutrophil, read-out: IC50 cell‐based 5‐LOX
Description: Blood cell isolation and cultivation of cell lines. Human neutrophils were freshly isolated from peripheral blood obtained at the Institute for Transfusion Medicine of the University Hospital Jena (Germany) as described.[45] Briefly, human peripheral blood was collected in heparinized tubes (16 I. E. heparin/mL blood) by venipuncture from fasted (12 h) adult healthy volunteers, with consent, and leukocyte concentrates were prepared by centrifugation (4000×g, 20 min, 20 °C). The subjects had no apparent inflammatory conditions and had not taken anti‐inflammatory drugs for at least ten days prior to blood collection. Neutrophils were immediately isolated by dextran sedimentation and centrifugation on Nycoprep cushions (PAA Laboratories, Linz, Austria) and hypotonic lysis of erythrocytes was performed under hypotonic conditions. Neutrophils were finally resuspended in PBS pH 7.4 containing 1 mg/mL glucose and 1 mM CaCl2 (purity >96‐97 %).
5‐LOX activity assay. […] […] 30 μL 1 N HCl and 500 μL PBS, and 200 ng PGB1 were added and the samples were subjected to solid phase extraction on C18‐columns (100 mg, UCT, Bristol, PA, USA). 5‐LOX products (LTB4, all‐trans isomers of LTB4, and 5‐hydro(pero)xy‐6,8,11,14‐ eicosatetraenoic acid (5‐H(p)ETE) were analyzed by RP‐HPLC and quantities calculated referencing to the internal standard PGB1.

[3] = target: T2, mPGES‐1 (Homo sapiens, UniProt O14684); conditions: cell-free; cited from earlier work
T2 construct: Microsomes derived from A549 cells expressing mPGES‐1; endogenous in cells; host or cells: A549 cells (microsomes)
T2 sequence (O14684 1-152): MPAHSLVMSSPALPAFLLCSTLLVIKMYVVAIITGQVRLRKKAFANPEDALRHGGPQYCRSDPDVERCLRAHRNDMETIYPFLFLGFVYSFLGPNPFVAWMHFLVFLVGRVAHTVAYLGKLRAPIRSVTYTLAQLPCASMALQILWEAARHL

[4] = target: T3, human recombinant 5‐LOX (Homo sapiens, UniProt P09917); assay: Human recombinant 5-LOX activity assay (cell-free); format: biochemical; conditions: 20 μM arachidonic acid
T3 construct: made in house; host or cells: Escherichia coli BL21 (DE3)
T3 sequence (P09917 1-674): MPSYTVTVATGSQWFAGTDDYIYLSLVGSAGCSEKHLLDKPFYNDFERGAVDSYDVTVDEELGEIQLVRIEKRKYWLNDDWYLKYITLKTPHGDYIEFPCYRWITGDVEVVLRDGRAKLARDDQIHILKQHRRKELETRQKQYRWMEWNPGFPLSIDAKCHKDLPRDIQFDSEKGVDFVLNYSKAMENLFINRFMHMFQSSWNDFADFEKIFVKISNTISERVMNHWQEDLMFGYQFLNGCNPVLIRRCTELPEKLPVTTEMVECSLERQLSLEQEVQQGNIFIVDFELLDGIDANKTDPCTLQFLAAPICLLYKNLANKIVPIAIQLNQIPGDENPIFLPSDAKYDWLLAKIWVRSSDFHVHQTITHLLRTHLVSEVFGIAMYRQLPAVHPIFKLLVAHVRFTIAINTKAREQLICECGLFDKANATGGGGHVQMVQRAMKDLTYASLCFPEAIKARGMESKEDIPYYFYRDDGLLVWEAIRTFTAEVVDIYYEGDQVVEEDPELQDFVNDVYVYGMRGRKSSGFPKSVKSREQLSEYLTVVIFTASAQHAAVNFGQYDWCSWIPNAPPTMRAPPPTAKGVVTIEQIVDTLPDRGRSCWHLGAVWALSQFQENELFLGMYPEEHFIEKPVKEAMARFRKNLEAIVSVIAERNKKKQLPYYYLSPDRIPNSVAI
Description: Human recombinant 5‐LOX activity assay. Human recombinant 5‐LOX was expressed in Escherichia coli (E. coli BL21 (DE3)) cells and partially purified by affinity chromatography using an ATP‐agarose column as described.[22] Semi‐purified 5‐LOX (specific activity: 1.6 ± 0.2 μg 5‐LOX products per μg protein) was diluted in PBS containing EDTA (1 mM) and ATP (1 mM) to a concentration of 0.5 μg mL^−1 and immediately pre‐incubated with the test compounds (1 μL in DMSO; final DMSO concentration: 0.1 %) for 10 min at 4 °C. Samples were pre‐warmed for 30 s at 37 °C, and 5‐LOX product formation was initiated adding 2 mM CaCl2 and 20 μM arachidonic acid. The reaction was stopped after 10 min at 37 °C adding 1 mL ice‐cold methanol. Formed 5‐LOX metabolites (all‐trans isomers of LTB4 and 5‐H(p)ETE) were extracted and an aliquot of 50 μL analyzed by reversed phase‐HPLC (RP‐HPLC) as described.[23] Data were normalized to the vehicle control to avoid variations independent of test compounds.

[5] = target: T4, 5‐LOX/FLAP interaction (Homo sapiens, UniProt P20292); assay: In situ proximity ligation assay of 5-LOX/FLAP interaction in HEK293 cells; format: cell-based; conditions: HEK293 cells expressing 5-LOX and FLAP, 2.5 μM A23187; 1 d 3 μM
T4 construct: expressed in transfected cells; host or cells: HEK293 cells stably transfected with 5-LOX and FLAP
T4 sequence (P20292 1-161): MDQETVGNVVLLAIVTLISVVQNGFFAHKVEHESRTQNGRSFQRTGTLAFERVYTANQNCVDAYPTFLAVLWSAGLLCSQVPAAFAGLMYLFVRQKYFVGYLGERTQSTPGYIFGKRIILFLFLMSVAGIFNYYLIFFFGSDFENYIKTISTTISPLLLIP
Description: Cell culture. The human embryonic kidney cell line HEK293 was cultured as monolayer at 37 °C and 5 % CO2 in DMEM High glucose containing 10 % heat‐inactivated fetal calf serum (FCS), 100 U/mL penicillin and 100 μg/mL streptomycin. HEK293 cells stably expressing human recombinant 5‐LOX and FLAP were selected by 400 μg/mL geneticin and 200 μg/mL hygromycin B, respectively, as described before.[21]
Analysis of 5‐LOX/FLAP interaction by in situ proximity ligation assay. The manufacturer's protocol[46] for proximity ligation assay was used to detect in situ interaction of 5‐LOX with FLAP in HEK293 cells stably expressing both proteins as reported elsewhere.[24] Cells were pretreated with test compounds for 10 min at 37 °C, then treated with 2.5 μM Ca^2+‐ionophore A23187 for another 10 min, fixed, and incubated with primary antibody overnight as described before.[24] Samples were then incubated for 1 h (37 °C) with species‐specific secondary antibodies conjugated with oligonucleotides (PLA probe anti‐mouse MINUS and anti‐rabbit PLUS). The antibody‐bound oligonucleotides formed a DNA circle by addition of ligase (30 min, 37 °C). […] Protein‐protein‐interactions occurred as magenta fluorescent spots analyzed with an Axiovert 200 M microscope (Carl Zeiss) and a Plan Neofluar×40/1.3 Oil (DIC III) objective (Carl Zeiss).

[6] = target: T2, mPGES‐1; assay: mPGES-1 washout assay in microsomes of A549 cells; format: biochemical; conditions: for residual mPGES-1 enzyme activity: % of vehicle control
Description: mPGES‐1 washout assay. Microsomes derived from A549 cells expressing mPGES‐1 were incubated with low (1 μM) or high concentrations (10 μM) of compound 1 d. After 15 min an aliquot of the sample containing 10 μM 1 d was diluted 10‐fold with buffer to reach a final concentration of 1 μM. After another 5 min the substrate PGH2 (20 μM) was added. The reaction was stopped after 60 s to determine PGE2 formation. Washout data are presented as means of residual activity ± SD in % of vehicle treated control for n=3 independent experiments. Outliers were determined using Grubb's test (GraphPad Software, La Jolla, CA). Samples were not blinded.

[7] = target: T4, 5‐LOX/FLAP interaction; design: method as in PMID 24905297, PMID 28839250; conditions: HEK cells, same experimental conditions; cited from earlier work

SMILES	IC50 [1]	inhibition of LTC4S activity (in words) [1]	IC50 ([2]; Homo sapiens, 5 h)	further results
O=[N+]([O-])c1cc([N+](=O)[O-])c(-c2ccc(COc3cccc(C(F)(F)F)c3)cc2)cc1F [1 a]	1.68 ± 0.21 µM	significantly inhibited LTC4S activity	3.93 ± 0.24 µM	
O=[N+]([O-])c1cc([N+](=O)[O-])c(-c2ccc(OCc3ccccc3)cc2)cc1F [1 b]	> 100 µM	did not show inhibitory activity	> 100 µM	IC50 [3]: 0.6 ± 1.2 µM
O=[N+]([O-])c1cc([N+](=O)[O-])c(-c2ccc(COc3cccc4ccccc34)cc2)cc1F [1 c]	> 100 µM	did not show inhibitory activity	4.18 ± 0.16 µM	
O=[N+]([O-])c1cc([N+](=O)[O-])c(-c2ccccc2COc2cccc(C(F)(F)F)c2)cc1F [1 d]		significantly inhibited LTC4S activity		IC50 [4]: 3.35 ± 0.22 µM; IC50 ([1]; microsomes of HEK293 cells expressing human recombinant LTC4S, 1 μM LTA4-methyl ester, read-out: IC50 cell‐free LTC4S): 0.93 ± 0.04 µM; effect on 5‐LOX/FLAP interaction (PLA) [5]: able to block the 5‐LOX/FLAP interaction; residual mPGES-1 enzyme activity ([6]; 1 μM 1 d): 83.3%; residual mPGES-1 enzyme activity ([6]; 10 μM 1 d): 21.3%; mPGES-1 enzymatic activity after washout ([6]; 10-fold dilution from 10 to 1 μM): 72.5%; mechanism of mPGES-1 inhibition ([6]; washout experiment): reversible mechanism of inhibition; IC50 ([2]; human neutrophils, 2.5 μM A23187, LTB4, its trans isomers and 5-H(p)ETE): 1.4 ± 0.09 µM
COCCc1ccc(OCc2ccc(-c3cc(F)c([N+](=O)[O-])cc3[N+](=O)[O-])cc2)cc1 [1 e]	> 100 µM	did not show inhibitory activity	3.31 ± 0.27 µM	
CC(C)c1ccc2c(c1)c(SC(C)(C)C)c(CC(C)(C)C(=O)O)n2Cc1ccc(Cl)cc1 [MK886]				effect on 5‐LOX/FLAP interaction (PLA), earlier reports [7]: does block the interaction
CC(c1cc2ccccc2s1)N(O)C(N)=O (stereo not drawn) [zileuton]				effect on 5‐LOX/FLAP interaction (PLA), earlier reports [7]: inefficiency

— paper PMC9827972, “Identification of 2,4‐Dinitro‐Biphenyl‐Based Compounds as MAPEG Inhibitors” (Chemmedchem, 2022)
